From patent US20230123334A1, “AMINO LIPID COMPOUND, PREPARATION METHOD THEREFOR, AND APPLICATION THEREOF” (SHENZHEN SHENXIN BIOTECHNOLOGY CO., LTD., priority 2020, published 2023) come the findings set out here.

This experiment concerns HEK293 cells. Put plainly: Preliminary screening as DNA vectors, GFP transfection of HEK293 cells. The experiment is classed as cell-based. The protocol: Cell line: HEK293 cells (ATCC CRL-1573™)
Medium: DMEM supplemented with 10% fetal bovine serum (Invitrogen)
Mode of screening: cell transfection on 96-well plates
Detection (readout): percentage of the number of GFP fluorescent cells relative to the total number of cells (the total number of cells was measured using nucleus dye Hoechst—see FIG. 2). Lipofectamine2000 (Invitrogen) was used as positive control, according to the manufacturer's instructions.
Method: an 8-channel pipette was used for sample addition. The contents shown were for a single well of a 96-well flat plate.
1. The compound (0.01 mmol) prepared in Example 1 was dissolved in 1 mL of anhydrous ethanol. After ultrasonically dissolved, 10 μL of the resultant amino lipid solution in ethanol was taken and mixed with 5 μL of DOPE solution in ethanol (0.01 m), and then to the obtained mixture was added 35 μL of 0.2M sodium acetate buffer (pH 5.6), and 50 μL of liposome solution was prepared by vortex at a constant rotating speed for 30 s. 4 μL was taken from the 50 μL liposome solution and added to 46 μL of 0.02M sodium acetate buffer (pH 5.6), and the final liposome solution was formed by vortex at a constant rotating speed for 30 s. 5 μL was taken from the final liposome solution and mixed with 75 ng plasmid DNA (psin-EGFP-IRES-Puro, Clontech) dissolved in 5 μL of 0.02 M sodium acetate buffer, and was allowed to stay at room temperature for 30 min to form a lipid/DNA transfection complex.
2. 10 μL of the lipid/DNA transfection complex was incubated at room temperature for 30 min, followed by addition of 90 μL of fresh resuspended cells (3-5×10^4 cells) and mixing with a pipette. 100 μL of cells+lipid/DNA complex was transferred to separate wells of a 96-well culture plate immediately, and placed in an incubator containing 5% CO2 at 37° C.
3. Hoechst33258 (Invitrogen) was added at a final concentration of 0.2 μg/mL to the cells 20 to 24 hours after initial cell transfection, and cultured in darkness at 37° C. for 15 min. Afterwards, the cells were washed once with a PBS solution, and then added with medium for culture for 20 to 24 h.
4. The cells were placed in a high-throughput confocal microscope (Molecular Devices ImageXpress), and four visual fields of the image of the cells were captured for each well, and images at three laser wavelengths were captured for each sample: bright field images of cells (FIG. 2(a) and FIG. 2(b)), Hoechst-staining images showing total nuclei (FIG. 2(c) and FIG. 2(d)) and GFP images showing success in transfection with the plasmid DNA and the expression of GFP (FIG. 2(e) and FIG. 2(f)). MetaXpress software was used to separately count the cells in the Hoechst-staining images and GFP images, and then the number of cells expressing GFP was divided by the total number of nuclei to give the absolute cell transfection efficiency. The absolute transfection efficiency was calculated as follows: […]

Setting [1] is: HEK293 cells, lipid/DOPE liposome with 75 ng plasmid DNA (psin-EGFP-IRES-Puro), number of cells expressing GFP divided by total number of nuclei (Hoechst).
Where [2] appears, read: amino lipid/DOPE liposome with 75 ng plasmid DNA (psin-EGFP-IRES-Puro), number of GFP-expressing cells divided by total nuclei (Hoechst).

As to `CCCCCCCCCCCCN(CCCCCCCCCCCC)c1nc(NCCCCCCCCCCC)nc(NCCN(C)C)n1` [Compound N112N12D1], the “Absolute DNA transfection efficiency in HEK293 cells” value (“Absolute DNA transfection efficiency” for short) under setting [1] was found to be 0.7%. Turning to `CCCCCCCCCCCCN(CCCCCCCCCCCC)c1nc(NCCCCCCCCCCC)nc(NCCN2CCOCC2)n1` [Compound N112N12D2], the “Absolute DNA transfection efficiency” value under setting [1] amounted to 0.0%. For the compound `CCCCCCCCCCCCN(CCCCCCCCCCCC)c1nc(NCCCCCCCCCCC)nc(NCCN(CC)CC)n1` [Compound N112N12D7], the “Absolute DNA transfection efficiency” value under setting [1] is on record as 0.4%. On to `CCCCCCCCCCCCN(CCCCCCCCCCCC)c1nc(NCCCCCCCCCCC)nc(NCCCN2CCOCC2)n1` [Compound N112N12D8], for which the “Absolute DNA transfection efficiency” value under setting [1] was determined as 0.0%. Regarding `CCCCCCCCCCCCN(CCCCCCCCCCCC)c1nc(NCCCCCCCCCCC)nc(NCCCN2CCN(C)CC2)n1` [Compound N112N12D9], under setting [1], the “Absolute DNA transfection efficiency” value is given as 0.1%. With `CCCCCCCCCCCCN(CCCCCCCCCCCC)c1nc(NCCCCCCCCCCC)nc(NCC2CCN(C)CC2)n1` [Compound N112N12D10], the “Absolute DNA transfection efficiency” value under setting [1] is reported as 0.7%. With `CCCCCCNc1nc(NCCN(C)C)nc(SCCCCCC)n1` [S6N6 D1], the “Absolute DNA transfection efficiency” value under setting [2] is on record as 0.1%. As to `CCCCCCNc1nc(NCCN2CCOCC2)nc(SCCCCCC)n1` [S6N6 D2], the “Absolute DNA transfection efficiency” value under setting [2] is recorded as 0.0%.

As to `CCCCCCNc1nc(NCCN2CCCC2)nc(SCCCCCC)n1` [S6N6 D3], the “Absolute DNA transfection efficiency” value under setting [2] is reported as 0.0%. On to `CCCCCCNc1nc(NCCN2CCCCC2)nc(SCCCCCC)n1` [S6N6 D4], for which the “Absolute DNA transfection efficiency” value under setting [2] is 0.0%. Consider `CCCCCCNc1nc(NCCN2CCN(C)CC2)nc(SCCCCCC)n1` [S6N6 D5], for which the “Absolute DNA transfection efficiency” value under setting [2] is on record as 0.0%. For `CCCCCCNc1nc(NCCCN(C)C)nc(SCCCCCC)n1` [S6N6 D6], under setting [2], the “Absolute DNA transfection efficiency” value was 0.0%. Still for that read-out and setting: next, `CCCCCCNc1nc(NCCN(CC)CC)nc(SCCCCCC)n1` [S6N6 D7]: 0.0%; `CCCCCCNc1nc(NCCCN2CCOCC2)nc(SCCCCCC)n1` [S6N6 D8]: 0.0%; `CCCCCCNc1nc(NCCCN2CCN(C)CC2)nc(SCCCCCC)n1` [S6N6 D9]: 0.0%. As for `CCCCCCNc1nc(NCC2CCN(C)CC2)nc(SCCCCCC)n1` [S6N6 D10], under setting [2], the “Absolute DNA transfection efficiency” value worked out at 0.0%. `CCCCCCCNc1nc(NCCN(C)C)nc(SCCCCCC)n1` [S6N7 D1]: under setting [2], the “Absolute DNA transfection efficiency” value is listed as 0.1%. For `CCCCCCCNc1nc(NCCN2CCOCC2)nc(SCCCCCC)n1` [S6N7 D2], the “Absolute DNA transfection efficiency” value under setting [2] is reported as 0.0%. Regarding `CCCCCCCNc1nc(NCCN2CCCC2)nc(SCCCCCC)n1` [S6N7 D3], the “Absolute DNA transfection efficiency” value under setting [2] was 0.0%. The same measure, in the same setting: to `CCCCCCCNc1nc(NCCN2CCCCC2)nc(SCCCCCC)n1` [S6N7 D4] belongs 1.1%; to `CCCCCCCNc1nc(NCCN2CCN(C)CC2)nc(SCCCCCC)n1` [S6N7 D5], 3.7%; to `CCCCCCCNc1nc(NCCCN(C)C)nc(SCCCCCC)n1` [S6N7 D6], 0.4%. For `CCCCCCCNc1nc(NCCCN2CCOCC2)nc(SCCCCCC)n1` [S6N7 D8], the “Absolute DNA transfection efficiency” value under setting [2] is reported as 0.0%.

With `CCCCCCCNc1nc(NCCCN2CCN(C)CC2)nc(SCCCCCC)n1` [S6N7 D9], the “Absolute DNA transfection efficiency” value under setting [2] is recorded as 0.2%. Regarding `CCCCCCCNc1nc(NCC2CCN(C)CC2)nc(SCCCCCC)n1` [S6N7 D10], the “Absolute DNA transfection efficiency” value under setting [2] was 2.9%. On to `CCCCCCCCNc1nc(NCCN(C)C)nc(SCCCCCC)n1` [S6N8 D1], for which, under setting [2], the “Absolute DNA transfection efficiency” value was found to be 0.2%.

Consider `CCCCCCCCNc1nc(NCCN2CCOCC2)nc(SCCCCCC)n1` [S6N8 D2], for which the “Absolute DNA transfection efficiency” value under setting [2] came out at 0.3%. With `CCCCCCCCNc1nc(NCCN2CCCC2)nc(SCCCCCC)n1` [S6N8 D3], under setting [2], the “Absolute DNA transfection efficiency” value came out at 2.0%.

Consider `CCCCCCCCNc1nc(NCCN2CCCCC2)nc(SCCCCCC)n1` [S6N8 D4], for which the “Absolute DNA transfection efficiency” value under setting [2] is given as 1.7%. As to `CCCCCCCCNc1nc(NCCN2CCN(C)CC2)nc(SCCCCCC)n1` [S6N8 D5], the “Absolute DNA transfection efficiency” value under setting [2] worked out at 3.4%. Take `CCCCCCCCNc1nc(NCCCN(C)C)nc(SCCCCCC)n1` [S6N8 D6]: the “Absolute DNA transfection efficiency” value under setting [2] was determined as 0.6%. The same measure, in the same setting: next, `CCCCCCCCNc1nc(NCCN(CC)CC)nc(SCCCCCC)n1` [S6N8 D7]: 0.9%. Same read-out and setting: next, `CCCCCCCCNc1nc(NCCCN2CCOCC2)nc(SCCCCCC)n1` [S6N8 D8]: 0.0%; `CCCCCCCCNc1nc(NCCCN2CCN(C)CC2)nc(SCCCCCC)n1` [S6N8 D9]: 1.2%; `CCCCCCCCNc1nc(NCC2CCN(C)CC2)nc(SCCCCCC)n1` [S6N8 D10]: 0.4%. On to `CCCCCCCCCNc1nc(NCCN(C)C)nc(SCCCCCC)n1` [S6N9 D1], for which, under setting [2], the “Absolute DNA transfection efficiency” value turned out to be 0.1%. `CCCCCCCCCNc1nc(NCCN2CCOCC2)nc(SCCCCCC)n1` [S6N9 D2]: the “Absolute DNA transfection efficiency” value under setting [2] is listed as 0.2%. The same measure, in the same setting: to `CCCCCCCCCNc1nc(NCCN2CCCC2)nc(SCCCCCC)n1` [S6N9 D3] belongs 0.4%. Consider `CCCCCCCCCNc1nc(NCCN2CCCCC2)nc(SCCCCCC)n1` [S6N9 D4], for which the “Absolute DNA transfection efficiency” value under setting [2] stood at 0.4%. For `CCCCCCCCCNc1nc(NCCN2CCN(C)CC2)nc(SCCCCCC)n1` [S6N9 D5], the “Absolute DNA transfection efficiency” value under setting [2] was 7.9%. For `CCCCCCCCCNc1nc(NCCCN(C)C)nc(SCCCCCC)n1` [S6N9 D6], under setting [2], the “Absolute DNA transfection efficiency” value is given as 1.5%. Consider `CCCCCCCCCNc1nc(NCCN(CC)CC)nc(SCCCCCC)n1` [S6N9 D7], for which, under setting [2], the “Absolute DNA transfection efficiency” value stood at 1.1%. As to `CCCCCCCCCNc1nc(NCCCN2CCOCC2)nc(SCCCCCC)n1` [S6N9 D8], the “Absolute DNA transfection efficiency” value under setting [2] amounted to 0.0%. With `CCCCCCCCCNc1nc(NCCCN2CCN(C)CC2)nc(SCCCCCC)n1` [S6N9 D9], the “Absolute DNA transfection efficiency” value under setting [2] came to 0.8%.

As to `CCCCCCCCCNc1nc(NCC2CCN(C)CC2)nc(SCCCCCC)n1` [S6N9 D10], under setting [2], the “Absolute DNA transfection efficiency” value was determined as 4.3%. As for `CCCCCCCCCCCNc1nc(NCCN(C)C)nc(SCCCCCC)n1` [S6N11 D1], the “Absolute DNA transfection efficiency” value under setting [2] stood at 1.5%. Same read-out and setting: next, `CCCCCCCCCCCNc1nc(NCCN2CCOCC2)nc(SCCCCCC)n1` [S6N11 D2]: 0.2%; `CCCCCCCCCCCNc1nc(NCCN2CCCC2)nc(SCCCCCC)n1` [S6N11 D3]: 2.8%. Same read-out and setting: to `CCCCCCCCCCCNc1nc(NCCN2CCCCC2)nc(SCCCCCC)n1` [S6N11 D4] belongs 3.3%. Take `CCCCCCCCCCCNc1nc(NCCN2CCN(C)CC2)nc(SCCCCCC)n1` [S6N11 D5]: the “Absolute DNA transfection efficiency” value under setting [2] came to 17.5%.

Regarding `CCCCCCCCCCCNc1nc(NCCCN(C)C)nc(SCCCCCC)n1` [S6N11 D6], under setting [2], the “Absolute DNA transfection efficiency” value is on record as 1.9%. Regarding `CCCCCCCCCCCNc1nc(NCCN(CC)CC)nc(SCCCCCC)n1` [S6N11 D7], the “Absolute DNA transfection efficiency” value under setting [2] is 2.2%. Regarding `CCCCCCCCCCCNc1nc(NCCCN2CCOCC2)nc(SCCCCCC)n1` [S6N11 D8], the “Absolute DNA transfection efficiency” value under setting [2] is on record as 1.5%. Take `CCCCCCCCCCCNc1nc(NCCCN2CCN(C)CC2)nc(SCCCCCC)n1` [S6N11 D9]: the “Absolute DNA transfection efficiency” value under setting [2] is recorded as 21.1%.

As to `CCCCCCCCCCCNc1nc(NCC2CCN(C)CC2)nc(SCCCCCC)n1` [S6N11 D10], the “Absolute DNA transfection efficiency” value under setting [2] turned out to be 7.9%. Take `CCCCCCCCCCCCNc1nc(NCCN(C)C)nc(SCCCCCC)n1` [S6N12 D1]: the “Absolute DNA transfection efficiency” value under setting [2] came out at 4.7%. With `CCCCCCCCCCCCNc1nc(NCCN2CCOCC2)nc(SCCCCCC)n1` [S6N12 D2], the “Absolute DNA transfection efficiency” value under setting [2] is on record as 0.9%. As for `CCCCCCCCCCCCNc1nc(NCCN2CCCC2)nc(SCCCCCC)n1` [S6N12 D3], under setting [2], the “Absolute DNA transfection efficiency” value is recorded as 6.2%.
